Assay in all cases: NCI tumour cell line growth inhibition, 48 h
In assay [1] the test system is MDA-N.
The subject of assay [2] is DLD-1 colon.
The subject of assay [3] is DMS 114 small cell lung.
Assay [4] relates to DMS 273 small cell lung.
Assay [5] relates to KM20L2 colon.
In assay [6] the test system is LXFL 529 NSCLC.
Assay [7] relates to SNB-78 CNS.
Assay [8] concerns XF 498 CNS.
For assay [9], the system named is RXF-631 renal.
Assay [10] has as its system P388 leukemia.
Assay [11] concerns P388/ADR leukemia.

Where “and” joins values, the source holds several entries; their conditions need not be identical. Equal values may be shown once.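 Five compound concentrations were applied to cells in 96-well plates for 48 hours; endpoints were derived by simple linear interpolation of the resulting dose-response curve. GI50: concentration for 50% inhibition of growth. TGI is the concentration that stops growth completely.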 Bounds are passed on as bounds.

Take `COC(=O)c1c[nH]c(=O)[nH]c1=O`: the TGI in assay [1] was over 100 µM.
Consider `O=C(c1ccccc1)C1C(C(=O)c2ccccc2)N1Cc1ccccc1` (centres undefined), for which, in assay [1], the TGI turned out to be 37.4 µM.
With `Cc1ccc(S(=O)(=O)N(/N=C(\N)Oc2ccc(Cl)cc2)C(=N)Oc2ccc(Cl)cc2)cc1`, the TGI in assay [2], in assay [3], in assay [4], in assay [5], in [6] and in [7] was over 100 µM each time. The same molecule yielded a TGI in assay [8] of over 100 µM.
Turning to `O=C1C2c3[nH]c4ccccc4c3[C@@H]3CCCCCCCCCCC3C2C(=O)N1c1ccccc1` (some centres undefined), the TGI in assay [2] is over 100 µM; in [3] it was 37 µM; in assay [4], over 100 µM; in [6] it was 28.1 µM; in [9], 28 µM; in [7] it was 24.7 µM.
Regarding `C(=N\Nc1nnc2c(n1)[nH]c1ccccc12)/c1cccnc1`, the TGI in assay [1] is over 100 µM.
As to `CN(C)c1ccc(/C=C2\C[C@H]3[C@@H]4CC=C5C[C@@H](N6CCCC6)CC[C@]5(C)[C@H]4CC[C@]3(C)[C@H]2O)cc1`, in [1], the GI50 is 2.87 µM; the TGI is 2.34 µM and 8.6 µM.
For the molecule `COc1ccc(/C=C2\Cc3ccccc3C2=O)cc1OC`, the TGI in assay [2], in [3], in assay [5], in [6], in assay [7] and in assay [8] was over 100 µM throughout.
`CC(C)[C@@H]1C=C(c2ccccc2)c2ccccc2C1C(C#N)(C#N)C(C)C` (some centres undefined): the TGI in assay [2], in assay [3], in [4], in assay [5], in assay [6] and in [7] was over 100 µM throughout. This molecule also yielded a TGI in assay [8] of over 100 µM.
As to `N/C(=N\NS(=O)(=O)c1ccccc1)Oc1ccc(Cl)cc1`, the TGI in [2], in assay [3], in assay [4], in assay [5], in assay [6] and in assay [7] was over 100 µM in each case. Further, in assay [8], the TGI is over 100 µM.
As to `O=P(Oc1ccc(Cl)cc1)(Oc1ccc(Cl)cc1)N1CC1`, in assay [1], the TGI was over 10 µM.
Regarding `COc1ccc2cccc(C(=O)c3ccc(C)c4c3CCC4)c2c1`, the TGI is over 100 µM in assay [2]; over 100 µM in [3]; 70 µM in [4]; over 100 µM in assay [5]; over 100 µM in assay [6]; 43.9 µM in assay [9].
In the case of `Cn1c2c([N+](=O)[O-])[se]nc2c(=O)n1-c1ccc([N+](=O)[O-])cc1`, the TGI in assay [2] was determined as 2.69 µM; in assay [3], 0.575 µM; in [4] it was 6.96 µM; in assay [5] it was 18.3 µM; in [6] it was 2.5 µM; in [9] it was 4.04 µM. In addition, the values for the TGI in [7] and in assay [8] were 3.76 µM and 3.71 µM, respectively.
In the case of `CCCCCCCCCCCC(=O)OCC1OC(n2cc(F)c(=O)[nH]c2=O)C(NC(=O)OCc2ccccc2)C(O)C1O` (centres undefined), the TGI came out at 36.2 µM in assay [4], 42.3 µM in assay [5], 34.3 µM in [6] and 87.7 µM in assay [7].
On to `C/C1=C\[C@H](C)C[C@H](C)OC(=O)C[C@H](c2ccc(O)cc2)NC(=O)[C@@H](Cc2c(Br)[nH]c3ccccc23)N(C)C(=O)[C@H](C)NC(=O)[C@@H](C)C1`, for which the GI50 in [2] is 0.148 µM; in assay [3], 0.0424 µM; in assay [5], 0.0277 µM; in assay [6], 0.0299 µM; in [9], 0.047 µM; in assay [7] it was 0.0339 µM. Further, the GI50 in assay [8] was 0.0249 µM. Moreover, the TGI in [2] is 2.39 µM; in [3], 0.837 µM and 1.56 µM; in assay [4] it was 0.83 µM; in assay [5] it was 10.7 µM; in assay [6] it was 3.41 µM; in assay [1] it was 2.83 µM. Further, the TGI is 0.795 µM and 0.163 µM in [7]; 0.448 µM and 0.0585 µM in assay [8].
With `COC(=O)C[CH](C(=O)OC)[Ge]([CH3])([CH3])[S]c1ccccc1` (centres undefined), the GI50 in assay [2] is 22 µM; in assay [4], 12.6 µM; in assay [5] it was 26.7 µM; in assay [6], 17.5 µM; in assay [7] it was 22.1 µM. Further, the TGI was 42.4 µM in assay [2]; 29.9 µM in [4]; 67.9 µM in assay [5]; 36 µM in assay [6]; 96.7 µM in assay [7].
For `S=c1nc[nH]c2c1ncn2Cc1ccco1`, in assay [1], the TGI is over 100 µM.
Consider `COC(=O)C(=O)C1(CCC(C)=O)c2ccccc2-c2ccccc21`, for which the TGI in assay [2], in assay [3], in assay [4], in [5] and in assay [6] was over 100 µM in each case.
Regarding `CC[C@@]1(O)C(=O)NCc2c1cc1n(c2=O)Cc2cc3ccccc3nc2-1`, in assay [1], the GI50 is 12.4 µM and the TGI is over 100 µM.
Consider `Cc1cccc(NC(=O)C(=O)C2C(=O)NC(=O)NC2=O)c1C`, for which the TGI in assay [2], in [3], in assay [4], in [5], in assay [6] and in assay [7] was over 100 µM throughout.
`Nc1nc2c(ncn2C2OC(CO)C(O)C2N)c(=O)[nH]1` (centres undefined): the TGI in assay [2], in assay [3], in assay [4], in assay [6], in assay [9] and in [7] was over 100 µM in each case. This molecule also gave a TGI in assay [8] of over 100 µM.
For `Cc1cc(C)cc(-n2c3nc(=O)n(C)c(=O)c-3nc3ccccc32)c1`, the TGI was 29.1 µM in [3]; 37.7 µM in [4]; 52.9 µM in assay [5]; over 100 µM in assay [6]; 80.3 µM in [9]; over 100 µM in [7]. The same molecule came in with a TGI in assay [8] of 81 µM.
Take `C/C(=C\c1ccc(Cl)cc1)C(C)(C)C(=O)O`: the TGI in [1] is over 100 µM.
Same read-out and setting: for `O=NC1c2cccc3cccc(c23)C1N=O` (centres undefined) the value was 25.4 µM.
As to `CC1(O)C=CC2CCC1C2O` (centres undefined), the TGI in assay [2] is over 100 µM; in [3], 32.1 µM; in [4], over 100 µM; in assay [5], over 100 µM; in assay [6], over 100 µM; in [7], over 100 µM. The same molecule showed a TGI in assay [8] of over 100 µM.
In [1], `Nc1[nH]c(=O)ncc1F` gave a TGI of over 100 µM.
Consider `CCOC(=O)C(C)(C)Oc1ccc2c(=O)cc(-c3ccccc3)oc2c1`, for which the TGI in [3] is 44 µM; in [5], 52.1 µM; in assay [6] it was 35.7 µM; in assay [7], 71.8 µM.
Consider `NCCCCCS(=O)(=O)O`, for which the TGI in [2], in assay [3], in [4], in assay [5], in [6] and in assay [9] was over 100 µM in each case. In [7], this molecule gave a TGI of over 100 µM.
As for `CC#C[C@@]1(O)CCCC[C@@H]1O`, the TGI in assay [3], in [4], in assay [5], in [9], in [7] and in assay [8] was over 100 µM in each case.
Molecule `O=[N+]([O-])c1cccc([N+](=O)[O-])c1S(=O)(=O)c1ccccc1` showed a TGI in assay [1] of 19.8 µM.
On the same count and under the same terms, for `CCOC1OCCCC1Br` (centres undefined) the value was over 100 µM.
As to `O=C(c1cc(O)ccc1O)c1ccccc1C(Cl)(Cl)Cl`, the TGI in assay [3] was over 100 µM; in [4], over 100 µM; in assay [5], over 100 µM; in assay [6] it was over 100 µM; in assay [7], over 100 µM; in assay [8] it was 84.2 µM.
Take `O=c1[nH]cc(CS(=O)(=O)Cc2c[nH]c(=O)[nH]c2=O)c(=O)[nH]1`: in assay [1], the TGI was over 100 µM.
For the molecule `O=C(N/N=C(/c1nc2ccc(Cl)cc2[nH]c1=O)C(O)c1ccc(Cl)cc1Cl)c1ccncc1` (centres undefined), the TGI in assay [2], in assay [3], in assay [4], in [5], in assay [6] and in assay [9] was over 100 µM in each case. The molecule further registered a TGI in assay [7] of over 100 µM.
Turning to `COc1cc([C@@H]2c3cc4c(cc3[C@@H](NC(=O)c3ccc(N)cc3)C3COC(=O)[C@@H]32)OCO4)cc(OC)c1O` (some centres undefined), the TGI is 35.4 µM in assay [2]; 9.71 µM in assay [3]; 16.3 µM in assay [4]; 9.57 µM in assay [5]; over 100 µM in [6].
Turning to `Cc1ccc2nc3c(C)c(Cl)c(=O)cc-3sc2c1`, the TGI was over 100 µM in [2]; 12.9 µM in assay [3]; over 91.3 µM in assay [4]; over 100 µM in [5]; over 100 µM in [6]; 32.1 µM in assay [1]. For the same molecule, the TGI in [9] was found to be 91.3 µM; in assay [7], 96.9 µM; in assay [8], 32.5 µM.
`COC(=O)/C=C/C(=O)C1C(C(=O)OC)C2(C(=O)OC)CCC1(C(=O)OC)N2` (centres undefined): the TGI in assay [2], in [3] and in assay [7] was over 100 µM throughout.
With `CCC1C(C)c2c([nH]c3ccccc23)C2C(=O)N(c3ccccc3)C(=O)C21` (centres undefined), the TGI in assay [2] came to 34.9 µM; in [3], 29.7 µM; in assay [4], 37.4 µM; in assay [6], 96.2 µM; in assay [9], 26.3 µM; in assay [7], 67.6 µM. In assay [8], this molecule returned a TGI of 36 µM.
For the molecule `COC(=O)C1=C(OC)c2cc3c(cc2C(c2cc(OC)c(OC)c(OC)c2)C1C(=O)OC)OCO3` (centres undefined), the TGI in [2], in assay [3], in [4], in assay [5], in assay [6] and in assay [7] was over 100 µM throughout. The TGI in assay [8] was over 100 µM.
For `O=C1c2ccccc2C(=O)c2c(NCCCNCCO)ccc(NCCCNCCO)c21`, the TGI in [3] is 25.2 µM; in assay [5] it was 19.9 µM; in assay [6] it was 16.1 µM; in assay [1] it was 20 µM; in assay [9] it was over 100 µM; in [7], 30.8 µM. The TGI in assay [8] turned out to be 27 µM.
Regarding `Cc1cnc[nH]c1=O`, the TGI in [2], in assay [3], in assay [4], in [5], in assay [6] and in assay [9] was over 100 µM in each case. This molecule also yielded a TGI in assay [7] of over 100 µM.
Take `C=CN1C(=O)OC(c2ccccc2)C1c1ccccc1` (centres undefined): the GI50 was over 100 µM in [2]; > 31.6 µM and 73.1 µM in assay [3]; over 100 µM in [5]; over 100 µM in [6]; over 100 µM in assay [9]; over 100 µM in assay [7]. Also, the TGI in assay [2], in [3], in assay [4], in assay [5], in assay [6] and in assay [9] was over 100 µM each time. Further, in assay [7], the TGI was over 100 µM.
Turning to `CCOC(=O)C1N(S(=O)(=O)c2ccc(C)cc2)CCC12c1ccccc1N(C(C)=O)C2C(/C=C/C(=O)OC)=C/C(=O)OC` (centres undefined), the TGI in [2], in assay [3], in [4], in assay [5], in assay [6] and in assay [7] was over 100 µM throughout. This molecule returned a TGI in [8] of over 100 µM.
With `Cc1c[nH]c2c1C13CC1CN(C(=O)c1cc4cc(NC(=O)c5cc6ccccc6o5)ccc4[nH]1)C3=CC2=O` (centres undefined), the GI50 in assay [2], in [3], in assay [4], in assay [10], in assay [11] and in assay [7] was over 1.17 ng/mL each time. For the same molecule, the TGI in assay [2] was 34.6 nM and 1.69 µg/mL; in [3] it was under 0.001 µM; in [5], under 0.001 µM; in assay [9], 0.0139 µM; in assay [7], 32.1 nM and 0.0318 µg/mL.

Values taken from PubChem BioAssay (NCI).
